Results from patent US20190367449A1, “PHENYLCREATINE, ITS USE AND METHOD FOR ITS PRODUCTION” (priority 2017, published 2019).

Assays:
[1] = Stability of phenylcreatine compared to creatine in blood serum (RP-HPLC peak areas); format: in vitro ADME, human
Method: The study of the stability of phenylcreatine and creatine in aqueous solution and in human blood was carried out as follows. For the preparation of solutions of test substances on an analytical balance the exactly weighed phenylcreatine and creatine were taken. The calculated amount of double-distilled water was added to them to obtain a concentration of 1 mg/ml. A part of the solution was diluted 10 times, and the sample was immediately analyzed. Further, that solution was kept at room temperature and after 3 hours the analysis was repeated. Further according to the method described in Dunnett, Harris & Orme (1991) Reverse phase ion-pairing high performance liquid chromatography of phosphocreatine, creatine and creatinine in equine muscle. Scand. J. Clin. Lab. Invest. 51, 137-141, page 139, aliquot (c), creatinine, creatine and phosphocreatine were removed from the samples used for obtaining of the blood serum for mixing, to obtain more accurate results. 1 ml of water or prepared according to the method above blood serum was added to 200 μl of a solution in water of initial substance with a concentration of 2-3 mg/ml, shaken and a sample of 200 μl volume was immediately taken and initial concentration was analyzed. Then the solution was placed in a vibration thermostat at 37° C. and an aliquot of 200 μl was taken in 0.5, 1 and 3 hours of incubation. 20 μl of a 10% solution of trichloroacetic acid was added to the selected sample and kept for 15 min at a temperature of minus 24° C., centrifuged at 6000 g for 5 min to precipitate the plasma proteins, supernatant was collected and its analysis was conducted. The study of the stability of phenylcreatine compared to creatine in an aqueous solution and blood was carried out using reversed-phase HPLC using a chromatographic system Agilent 1220 Infinity LC System (USA). To assess the stability of the analytes, the peak areas of the compounds were compared at the beginning of the experiment and at selected intervals (Table 2).

untrained subjects = settings: creatine in combination with carbohydrates, 5 days before and 14 days after training; cited from earlier work
[2] = system: healthy men, having a sedentary lifestyle; settings: loading protocol followed by 11-week maintenance; for 4-12 weeks; cited from earlier work
[3] = system: craniocerebral trauma in rats and mice; settings: cited from earlier work
[4] = system: children and adults with craniocerebral trauma (CCT); settings: six months, 400 mg/kg of body weight, cited from earlier work
[5] = system: adrenal arrhythmia (extrasystole) in rats; experiment: Model of adrenal arrhythmia (extrasystole) in rats; format: in vivo
Text: One of the most important factors of arrhythmogenesis and the appearance of extrasystoles is the activation of the sympathoadrenal system. This circumstance determined the necessity of investigating phenylcreatine, proposed by the author of the present invention, on the model of adrenal arrhythmia (extrasystole) in rats (Kushakovsky M S, Heart arrhythmias: a guide for physicians, St. Petersburg, Hippocrates 1992).
In a control series of experiments, in all animals, 12 seconds after injection of epinephrine hydrochloride at a dose of […], polytopic ventricular extrasystole occurred in all animals. The number of ventricular extrasystoles before transition to tachycardia averaged 32±6. The duration of such arrhythmias was 80±21 seconds. In 50% of cases, it passed into the ventricular tachycardia. The duration of tachycardia was, on average, 86±12 seconds.
With the introduction of phenylcreatine, proposed by the present inventor in an amount of 20 mg per animal, half an hour before adrenaline hydrochloride, the number of ventricular extrasystoles was 12±4. The duration of the arrhythmia was 60±14 seconds.

[6] = system: supraventricular extrasystoles; experiment: Holter monitoring of supraventricular extrasystoles in a person taking phenylcreatine; format: in vivo, human; settings: 2 mg per 1 kg per day for 14 days
Method: Additionally, the following study was carried out. Professional […] (15 years of experience in power triathlon). Supraventricular extrasystoles with a frequency of 4 times in 24 hours were observed according to holter monitoring. Extrasystoles were very poorly tolerated, there were complaints of discomfort and a decrease in the quality of life (neurosis-like condition). They took phenylcreatine in an amount of 2 mg per 1 kg per day, for 14 days.

male Wistar rats = experiment: Nootropic action in a shuttle maze, old rats; format: in vivo; settings: old rats 25 months
Method: The experiments were performed on male Wistar rats born in September 2014 (experiments were conducted in November 2016). The animals were kept in standard plastic cells at an air temperature of 21-23° C. They received a balanced granular food and drinking water without restrictions. The work was carried out in compliance with the principles of the Helsinki Declaration on Humane Treatment of Animals.
Rats were divided into 2 groups. The rats of the first test group received 10 mg of phenylcreatine per animal daily for a month with drinking water. The rats of the second test group received water. As a control in the experiment, rats born in May 2016 (the third group, young rats) were used.
In the experiment, a shuttle maze was used to evaluate neuropsychiatric processes, primarily cognitive processes (Navakatikyan M A, Platonov L L, 1988). At the end of the labyrinth there was a food reinforcement (a piece of cheese with a mass of 200 mg).
The time of the experiment to find the exit from the labyrinth was 5 minutes. During the experiment, the time of passing the labyrinth, the number of rats reaching the end of the labyrinth, the number of vertical racks were recorded.

[7] = Negative effects in all the studies conducted; format: in vivo
Text: It should also be noted that, with all the studies conducted, the negative effects of phenylcreatine according to the invention were not detected, which indicates its safety.

white mongrel mice = experiment: Endurance of mice in the treadmill test (running to complete exhaustion); format: in vivo
[8] = 0 h, initial, peak area relative to the beginning of the experiment

CN(CC(=O)O)C(=N)N [creatine, 2-(methylguanine)-ethane acid]
Stability in a blood serum [1, 8]: 100% | Stability in a blood serum ([1]; 0.5 h incubation at 37° C.): 98% | Stability in a blood serum ([1]; 1 h incubation at 37° C.): 67% | Stability in a blood serum ([1]; 3 h incubation at 37° C.): 52% | Isokinetic muscle strength, greater than with carbohydrates only (untrained subjects): 10% | Isometric muscle strength, greater than with carbohydrates only (untrained subjects): 21% | Reduction of the glucose response in glucose tolerance test [2]: 11-22% | Subsequent injuries ([3]; dietary consumption of 1% creatine for four weeks): halved | Reduction of the severity of craniocerebral trauma ([3]; injections of creatine 3 g/kg for up to five days before trauma): 3-36% | Frequency of fatigue ([4]; reduced from 82.4%): 11.1% | Frequency of dizziness ([4]; reduced from 88.9 percent): 43.8% | Frequency of headaches ([4]; reduced from 93.8%): 11.1%

N=C(N)N(CC(=O)O)Cc1ccccc1 [phenylcreatine, N-benzyl-N-carbamimidoylglycine]
Stability in a blood serum [1, 8]: 100% | Stability in a blood serum ([1]; 0.5 h incubation at 37° C.): 100% | Stability in a blood serum ([1]; 1 h incubation at 37° C.): 99% | Stability in a blood serum ([1]; 3 h incubation at 37° C.): 96% | Concentration in the blood (in words) ([1]; for 3 hours): remained practically unchanged | Number of ventricular extrasystoles ([5]; 20 mg per animal half an hour before adrenaline hydrochloride, control 32±6): 12±4 | Duration of the arrhythmia ([5]; 20 mg per animal half an hour before adrenaline hydrochloride, control 80±21): 60 ± 14 s | Transition to tachycardia ([5]; 20 mg per animal, control 50% of cases): no transition to tachycardia | Holter monitoring within 3 months after the course [6]: does not fix supraventricular extrasystoles | Extrasystoles after the course ([6]; before: 4 times in 24 hours): extrasystoles completely disappeared | Number of vertical rearings per minute (male Wistar rats; 10 mg per animal daily for a month with drinking water, untreated old rats 2±0.56): 1.2±0.44 | The transit time of the labyrinth (male Wistar rats; 10 mg per animal daily for a month, untreated old rats 5±0.42): 2 ± 0.22 min | The number of rats reaching the end of the labyrinth in 5 minutes (male Wistar rats; 10 mg per animal daily for a month, untreated old rats 10%): 50% | Negative effects [7]: not detected | Effect on endurance in the absence of sleep (white mongrel mice): persisted even in the absence of sleep
